Measurements reported in patent US20200157151A1, “PEPTIDE COMPOUNDS, CONJUGATE COMPOUNDS AND USES THEREOF FOR TREATING INFLAMMATORY DISEASES” (TRANSFERT PLUS, S.E.C., priority 2017, published 2020).
Square brackets hold non-standard residues; d marks the D form. Peptide text beside a SMILES is read from it. Nle = CCCC[C@H](N)C(=O)O

Tests used:
[1] = tested on: human HT-29 colorectal cancer cells; experiment: Time-course uptake by flow cytometry (cell-associated fluorescence); format: cell-based; conditions: 5 μM, 37° C., HT-29 cells, FIG. 4B
Experimental: FIG. 4 is a series of charts illustrating higher and sustained uptake of KBC-201 (FIG. 4A). At the same concentration (5 μM), KBC-201 generates about half the fluorescence compared to free curcumin (Ex.: 488 nm, Em.: 530 nm) (FIG. 4B). Time-course uptake of KBC-201 (full line) and free curcumin (dotted line) in human HT-29 colorectal cancer cells. HT-29 cells were incubated at 37° C. with 5 μM of KBC-201 or curcumin at various times, trypsinized, washed, and cell-associated fluorescence uptake was quantified using a BD Accuri™ C6 flow cytometer.
(§1) The uptake of Curcumin conjugate or free Curcumin was measured as a function of time in human HT-29 colon cancer cells (FIG. 4). […] Indeed, the Curcumin conjugate (KBC-201) is less fluorescent by about 2-3 folds when compared to free Curcumin. […] The uptake of both KBC-201 and free Curcumin was next measured in the presence of Sortilin ligands (FIG. 5B). […] Taken together, data of the pharmacological inhibition using Sortilin ligands and the silencing of Sortlin expression confirm that the Curcumin conjugate is internalized via a Sortilin-dependent mechanism.

Sortilin receptor = biological target: T1, Sortilin receptor (Homo sapiens, UniProt Q99523); experiment: Sortilin-mediated uptake in HT-29 cells (siRNA silencing and competition with Sortilin ligands); format: cell-based; conditions: 5 μM; for Uptake when Sortilin expression is reduced by siRNA: 2 h, 37° C., siSortilin vs siScrambled HT-29 cells, FIG. 5A; for Uptake in the presence of Sortilin ligands: excess free peptide (50 μM), neurotensin (10 μM) or progranulin (1 nM), HT-29 cells, FIG. 5B
T1 construct: Sortilin-deficient (siSortilin) HT-29 colorectal cancer cells; endogenous in cells; host or cells: HT-29 human colorectal cancer cells
T1 sequence (Q99523 78-831): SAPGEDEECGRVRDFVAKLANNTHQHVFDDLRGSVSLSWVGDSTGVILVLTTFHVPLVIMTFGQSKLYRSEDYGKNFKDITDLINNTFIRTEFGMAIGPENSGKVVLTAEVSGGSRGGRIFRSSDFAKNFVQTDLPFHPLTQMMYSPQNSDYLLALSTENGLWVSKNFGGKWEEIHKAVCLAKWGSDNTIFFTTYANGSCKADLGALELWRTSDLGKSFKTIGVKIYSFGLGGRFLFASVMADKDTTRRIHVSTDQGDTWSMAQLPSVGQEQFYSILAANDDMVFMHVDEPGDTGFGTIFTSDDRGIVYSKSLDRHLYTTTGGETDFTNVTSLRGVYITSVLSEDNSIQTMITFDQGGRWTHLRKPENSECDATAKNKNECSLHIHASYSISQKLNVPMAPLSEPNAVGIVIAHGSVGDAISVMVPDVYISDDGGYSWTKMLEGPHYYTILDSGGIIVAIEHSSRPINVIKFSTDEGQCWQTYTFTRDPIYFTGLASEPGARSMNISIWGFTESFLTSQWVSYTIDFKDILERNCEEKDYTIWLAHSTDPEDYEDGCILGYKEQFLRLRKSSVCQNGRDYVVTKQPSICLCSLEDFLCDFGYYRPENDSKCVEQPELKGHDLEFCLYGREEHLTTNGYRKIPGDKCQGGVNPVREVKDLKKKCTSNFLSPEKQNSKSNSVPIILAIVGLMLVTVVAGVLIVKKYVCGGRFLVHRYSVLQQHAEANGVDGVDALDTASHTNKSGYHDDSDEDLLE
Experimental: FIG. 5 is a series of charts showing Sortilin-mediated uptake of KBC-201 in human colorectal cancer cells, FIG. 5A) Uptake of 5 μM of KBC-201 or free curcumin were performed at 37° C. in control (siScrambled) or Sortilin-deficient (siSortilin) HT-29 colorectal cancer cells. After a 2 h incubation, cells were trypsinized to remove non-internalized products, washed 3-times with ice-cold PBS and cell-associated fluorescence was quantified using a BD Accuri™ C6 flow cytometer. […] Cell-associated fluorescence uptake was quantified using a BD Accuri™ C6 flow cytometer.
as §1

[2] = Stability at room temperature followed by absorbance over time; conditions: FIG. 11
Excerpt: FIG. 11 is a graph showing absorbance of Curcumin conjugates and free Curcumin.

[3] = biological target: T2, Human recombinant Sortilin chimera protein (Homo sapiens, UniProt Q99523); experiment: Surface plasmon resonance (Biacore) interaction with immobilized Sortilin; format: binding; conditions: SPR; for Affinity for Sortilin, in words: comparison between peptides and Sortilin ligands
T2 construct: unnamed fusion partner or tag ('chimera'); purchased R&D Systems 3154-ST
T2 sequence (Q99523 78-755 limits assumed): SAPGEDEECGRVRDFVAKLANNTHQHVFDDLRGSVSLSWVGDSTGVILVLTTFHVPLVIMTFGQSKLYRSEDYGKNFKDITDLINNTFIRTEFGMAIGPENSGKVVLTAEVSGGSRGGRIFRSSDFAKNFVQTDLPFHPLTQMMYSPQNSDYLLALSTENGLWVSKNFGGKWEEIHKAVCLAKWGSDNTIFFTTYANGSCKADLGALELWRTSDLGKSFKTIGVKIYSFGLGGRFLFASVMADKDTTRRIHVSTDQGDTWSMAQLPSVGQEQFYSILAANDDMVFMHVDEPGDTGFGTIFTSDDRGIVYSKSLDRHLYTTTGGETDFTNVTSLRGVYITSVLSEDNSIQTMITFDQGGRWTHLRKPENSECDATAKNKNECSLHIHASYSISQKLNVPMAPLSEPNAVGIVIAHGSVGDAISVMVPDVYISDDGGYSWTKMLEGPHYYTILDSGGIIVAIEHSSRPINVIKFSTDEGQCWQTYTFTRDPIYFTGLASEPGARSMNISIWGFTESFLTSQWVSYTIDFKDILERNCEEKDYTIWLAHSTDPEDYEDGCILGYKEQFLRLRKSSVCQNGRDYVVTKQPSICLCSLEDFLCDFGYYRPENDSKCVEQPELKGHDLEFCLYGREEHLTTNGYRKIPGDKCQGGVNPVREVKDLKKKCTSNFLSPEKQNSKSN
Excerpt: FIG. 12 is schematic representation of real time interaction analysis using Surface Plasmon Resonance (SPR) and a Biacore instrument.
Further tests were made so as to investigate interaction of the peptide compounds of the present disclosure with Sortilin. Such tests were made using real-time surface plasmon resonance (Biacore) (see FIG. 12).

[4] = tested on: TNF-α-induced IκB phosphorylation in human HT-29 colon cancer cells; experiment: Inhibition of TNF-α-induced IκB phosphorylation in HT-29 cells; format: cell-based; conditions: 24 h pre-treatment, 100 ng/mL TNF-α 5 min, HT-29, FIG. 17; at a lower concentration than Curcumin
Excerpt: FIG. 8A) Immunodetection of IκB phosphorylation by TNF-α is shown.
One of the inflammatory pathways induced by TNF-α leads to the phosphorylation of IkB (FIG. 1), a key protein in inflammation. As expected, the addition of TNF-α to human HT-29 colon cancer cells triggered the phosphorylation of IkB (pIkB) (FIG. 8).
One of the inflammatory pathways induced by TNF-α leads to the phosphorylation IkB (see FIG. 1), a key protein in inflammation. It was observed that the addition of TNF-α to human HT-29 colon cancer cells triggered the phosphorylation of IkB (pIkB) (FIGS. 17A and 17B).

[5] = tested on: TNF-α-induced NFκB phosphorylation in human MDA-MB231 breast cancer cells; experiment: Inhibition of TNF-α-induced NFκB phosphorylation in MDA-MB231 cells; format: cell-based; conditions: 24 h pre-treatment, 100 ng/mL TNF-α 5 min, MDA-MB231, FIG. 18
Excerpt: FIG. 9A) Immunodetection of phosphorylated NFκB by TNF-α is shown.
FIGS. 9 and 10 are other examples of the Curcumin conjugate (KBC-201)'s effect on the TNF-α-induced signaling pathways in two other cancer cell models.
Results presented in FIGS. 18A and 18B show now that the peptide alone (KBP-201) can reduce the TNF-α-induced NFκB phosphorylation by about 30%.
In FIG. 18A, immunodetection of NFκB phosphorylation by TNF-α is shown.

[6] = tested on: TNF-α-induced COX-2 expression in human HT-29 colon cancer cells; conditions: 2 h pre-treatment, 10 ng/mL TNF-α 24 h, HT-29, FIG. 7
Experimental: (§2) Cells were pre-treated for 2 h with indicated compounds in serum-free medium before the addition of 10 ng/mL TNF-α for 24 h. Cells were lysed and the levels protein expression of COX-2 were monitored by immunoblotting. […] For each sample, the COX-2 level was corrected for GAPDH (a loading control) and normalized to those seen in TNF-α control (value=100%).
as §2, with “the” for “the levels”, “expression levels” for “expression”

COc1cc(/C=C/C(=O)CC(=O)/C=C/c2ccc(O)c(OC)c2)ccc1O [Curcumin, reference compound]
Uptake over time (cell-associated fluorescence) ([1]; listed as free Curcumin): transient and low intracellular accumulation | Uptake over time (cell-associated fluorescence) ([1]; listed as free curcumin): transient uptake | Uptake when Sortilin expression is reduced by siRNA (Sortilin receptor; listed as free Curcumin): unaffected | Uptake when Sortilin expression is reduced by siRNA (Sortilin receptor; listed as free curcumin): not that of free curcumin | Uptake in the presence of Sortilin ligands (Sortilin receptor; listed as free Curcumin): unaffected by none of them | Uptake in the presence of Sortilin ligands (Sortilin receptor; listed as free curcumin): not that of free curcumin | Stability (absorbance over time) [2]: decreased more rapidly over time

CCCC[C@H](NC(=O)[C@H](CC(N)=O)NC(=O)[C@H](CCCNC(=N)N)NC(=O)[C@@H](NC(=O)CNC(=O)[C@H](C)NC(=O)[C@H](CCCCN)NC(=O)[C@H](C)NC(=O)[C@H](CCCNC(=N)N)NC(=O)[C@@H](NC(=O)CNC(C)=O)C(C)C)C(C)C)C(=O)N[C@@H](Cc1ccccc1)C(=O)N[C@@H](CCCCN)C(=O)N[C@@H](CO)C(=O)N[C@@H](CCC(=O)O)C(=O)N[C@@H](CO)C(=O)N[C@@H](Cc1ccc(O)cc1)C(=O)O [KBP-106] (Ac-GVRAKAGVRN[Nle]FKSESY-OH; C-terminus assumed)
Affinity for Sortilin, in words [3]: better affinity for Sortilin than Neurotensin

CC(=O)N[C@@H](Cc1ccc(O)cc1)C(=O)N[C@@H](CCCCN)C(=O)N[C@@H](CO)C(=O)N[C@@H](CC(C)C)C(=O)N[C@@H](CCCNC(=N)N)C(=O)N[C@@H](CCCNC(=N)N)C(=O)N[C@@H](CCCCN)C(=O)N[C@@H](C)C(=O)N1CCC[C@H]1C(=O)N[C@@H](CCCNC(=N)N)C(=O)N[C@@H](Cc1c[nH]c2ccccc12)C(=O)N[C@@H](CC(=O)O)C(=O)N[C@@H](C)C(=O)N1CCC[C@H]1C(=O)N[C@@H](CC(C)C)C(=O)N[C@@H](CCCNC(=N)N)C(=O)N[C@@H](CC(=O)O)C(=O)N1CCC[C@H]1C(=O)N[C@@H](C)C(=O)N[C@@H](CC(C)C)C(=O)N[C@@H](CCCNC(=N)N)C(=O)N[C@@H](CCC(N)=O)C(=O)N[C@@H](CC(C)C)C(=O)N[C@@H](CC(C)C)C(=O)O [KBP-201]
Affinity for Sortilin, in words [3]: better affinity for Sortilin than Neurotensin | Affinity for Sortilin, in words ([3]; listed as KB-P201): better affinity | Reduction of TNF-α-induced phosphorylation of IkB, maximal effect [4]: 40% | Reduction of TNF-α-induced NFκB phosphorylation [5]: about 30%

Acetyl-GVRAK(curcumin)AGVRN(Nle)FK(curcumin)SESY [KBC-106]
Inhibition of TNFα-induced COX-2 expression, comparison of two conjugates [6]: more potent than free Curcumin | Stability (absorbance over time) [2]: more stable

RAP: receptor-associated protein, a Sortilin ligand [reference compound]
Kd ([3]; Sortilin immobilized on CM5 chip, KD calculated with Bia Evaluation software from sensorgrams of FIGS. 13-16, read-out: Affinity (KD)): 4.2 nM
